Assay results published in ChEMBL document CHEMBL4028831, “Improvement of hERG-ROMK index of spirocyclic ROMK inhibitors through scaffold optimization and incorporation of novel pharmacophores” (Bioorg Med Chem Lett, 2017).
pIC50: −log10 of the molar value. Active and inactive are the calls of the source. The calls are words filed in the database; no cut-off is given here.

Columns and labels:
Rattus norvegicus [1] = species on record: Rattus norvegicus; details: in vivo, po, 2 mg/kg
Cavia porcellus [2] = assay: Cardiotoxicity in anesthetized cardiovascular guinea pig model assessed as prolongation of QTc interval at 3 mg/kg administered as iv infusion relative to control; format: toxicity, organism-based; details: in vivo
[3] = Unbound fraction in guinea pig plasma at 10 mg/kg administered as iv infusion; format: ADME, organism-based, Cavia porcellus; details: in vivo
[4] = molecular target: Sodium-dependent serotonin transporter (Homo sapiens, UniProt P31645); assay: Inhibition of human SERT
Sequence of Sodium-dependent serotonin transporter (P31645 whole entry): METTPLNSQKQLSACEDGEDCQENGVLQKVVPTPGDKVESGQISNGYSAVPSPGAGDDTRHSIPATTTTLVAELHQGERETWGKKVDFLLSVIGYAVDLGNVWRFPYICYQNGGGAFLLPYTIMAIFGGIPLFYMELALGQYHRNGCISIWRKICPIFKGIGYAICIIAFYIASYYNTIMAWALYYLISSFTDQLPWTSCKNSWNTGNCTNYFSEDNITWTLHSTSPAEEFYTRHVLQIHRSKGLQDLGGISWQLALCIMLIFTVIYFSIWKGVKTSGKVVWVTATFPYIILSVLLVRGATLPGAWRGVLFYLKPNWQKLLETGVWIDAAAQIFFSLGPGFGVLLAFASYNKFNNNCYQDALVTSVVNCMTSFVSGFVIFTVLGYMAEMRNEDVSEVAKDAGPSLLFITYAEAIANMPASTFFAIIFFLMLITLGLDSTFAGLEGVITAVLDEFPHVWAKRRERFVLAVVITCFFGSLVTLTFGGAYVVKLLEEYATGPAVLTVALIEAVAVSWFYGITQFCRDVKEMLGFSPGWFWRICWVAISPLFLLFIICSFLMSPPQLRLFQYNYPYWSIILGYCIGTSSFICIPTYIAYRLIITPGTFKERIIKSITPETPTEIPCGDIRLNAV

[5] = molecular target: T1, ATP-sensitive inward rectifier potassium channel 1 (Homo sapiens, UniProt P48048); assay: Inhibition of human ROMK expressed in CHO cells at -70 mV holding potential after 6 mins by whole cell patch clamp Qpatch method; format: cell-based
T1 sequence (P48048 whole entry): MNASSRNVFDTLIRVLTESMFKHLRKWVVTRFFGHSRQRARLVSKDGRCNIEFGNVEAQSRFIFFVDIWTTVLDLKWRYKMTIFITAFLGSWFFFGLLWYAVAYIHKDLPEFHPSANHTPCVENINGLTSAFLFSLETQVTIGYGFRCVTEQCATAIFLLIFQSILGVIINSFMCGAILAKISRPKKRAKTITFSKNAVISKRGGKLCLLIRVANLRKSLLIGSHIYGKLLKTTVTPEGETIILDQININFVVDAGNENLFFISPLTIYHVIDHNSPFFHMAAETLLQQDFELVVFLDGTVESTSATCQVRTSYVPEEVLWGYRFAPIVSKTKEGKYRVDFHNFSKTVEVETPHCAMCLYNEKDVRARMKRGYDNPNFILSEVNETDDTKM

Cytochrome P450 2D6 = Cytochrome P450 2D6 (Homo sapiens, UniProt P10635); assay: Inhibition of CYP2D6 (unknown origin); format: ADME
Sequence of Cytochrome P450 2D6 (P10635 whole entry): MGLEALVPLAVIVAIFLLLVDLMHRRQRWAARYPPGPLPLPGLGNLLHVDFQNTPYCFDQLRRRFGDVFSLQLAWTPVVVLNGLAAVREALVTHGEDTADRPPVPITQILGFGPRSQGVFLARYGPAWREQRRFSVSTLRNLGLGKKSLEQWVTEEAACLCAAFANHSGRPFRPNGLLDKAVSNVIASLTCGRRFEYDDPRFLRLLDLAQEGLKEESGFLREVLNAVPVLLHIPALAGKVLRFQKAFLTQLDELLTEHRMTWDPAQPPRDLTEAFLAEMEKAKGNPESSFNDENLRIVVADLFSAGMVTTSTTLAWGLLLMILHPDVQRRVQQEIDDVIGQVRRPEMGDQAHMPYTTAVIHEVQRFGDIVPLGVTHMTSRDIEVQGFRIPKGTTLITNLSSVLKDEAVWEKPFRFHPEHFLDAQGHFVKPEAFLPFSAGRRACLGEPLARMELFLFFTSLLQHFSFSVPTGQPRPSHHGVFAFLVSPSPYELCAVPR

[6] = Fraction unbound in human plasma; format: ADME, cell-free
Rattus norvegicus [7] = assay: Antihypertensive activity in rat spontaneous hypertensive model assessed as induction of kaliuresis at 3 mg/kg, po qd measured after 3 days; format: functional, organism-based
Cytochrome P450 3A4 [8] = molecular target: T2, Cytochrome P450 3A4 (Homo sapiens, UniProt P08684); assay: Time dependent inhibition of CYP3A4 (unknown origin) in presence of NADPH; format: ADME
T2 sequence (P08684 whole entry): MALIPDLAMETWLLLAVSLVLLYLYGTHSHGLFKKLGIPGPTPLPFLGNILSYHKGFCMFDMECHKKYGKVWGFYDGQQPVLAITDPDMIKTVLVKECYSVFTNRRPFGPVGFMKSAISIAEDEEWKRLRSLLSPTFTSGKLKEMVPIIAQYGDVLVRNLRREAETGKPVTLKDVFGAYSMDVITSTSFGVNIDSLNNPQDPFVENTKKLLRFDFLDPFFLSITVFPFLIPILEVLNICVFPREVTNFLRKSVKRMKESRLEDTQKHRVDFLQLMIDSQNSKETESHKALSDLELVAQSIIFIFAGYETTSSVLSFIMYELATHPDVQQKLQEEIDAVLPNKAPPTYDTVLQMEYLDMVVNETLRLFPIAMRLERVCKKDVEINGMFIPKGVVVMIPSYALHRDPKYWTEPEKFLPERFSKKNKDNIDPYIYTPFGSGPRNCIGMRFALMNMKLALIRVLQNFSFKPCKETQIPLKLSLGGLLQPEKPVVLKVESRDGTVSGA

[9] = Fraction unbound in rat plasma; format: ADME, cell-free
Rattus norvegicus [10] = assay: Antihypertensive activity in rat spontaneous hypertensive model assessed as induction of diuresis at 3 mg/kg, po qd measured after 3 days; format: functional, organism-based
[11] = Unbound fraction in guinea pig plasma at 7 mg/kg administered as iv infusion; format: ADME, organism-based, Cavia porcellus; details: in vivo
[12] = molecular target: Voltage-dependent L-type calcium channel subunit alpha-1C (Homo sapiens, UniProt Q13936); assay: Inhibition of Cav1.2 (unknown origin)
Cytochrome P450 3A4 [13] = molecular target: T2, Cytochrome P450 3A4; assay: Inhibition of CYP3A4 (unknown origin); format: ADME
[14] = Half life in Beagle dog at 1 mg/kg, iv; format: ADME, organism-based, Canis lupus familiaris; details: in vivo
Cavia porcellus [15] = assay: Cardiotoxicity in anesthetized cardiovascular guinea pig model assessed as prolongation of QTc interval at 7 mg/kg administered as iv infusion relative to control; format: toxicity, organism-based; details: in vivo
[16] = Clearance in Beagle dog at 1 mg/kg, iv; format: ADME, organism-based, Canis lupus familiaris; details: in vivo
[17] = Fraction unbound in dog plasma; format: ADME, cell-free, Canis lupus familiaris
Rattus norvegicus [18] = assay: Antihypertensive activity in rat spontaneous hypertensive model assessed as induction of natriuresis at 3 mg/kg, po qd measured after 3 days; format: functional, organism-based
[19] = molecular target: Sodium channel protein type 5 subunit alpha (Homo sapiens, UniProt Q14524); assay: Inhibition of Nav1.5 (unknown origin)
Sequence of Sodium channel protein type 5 subunit alpha (Q14524 whole entry): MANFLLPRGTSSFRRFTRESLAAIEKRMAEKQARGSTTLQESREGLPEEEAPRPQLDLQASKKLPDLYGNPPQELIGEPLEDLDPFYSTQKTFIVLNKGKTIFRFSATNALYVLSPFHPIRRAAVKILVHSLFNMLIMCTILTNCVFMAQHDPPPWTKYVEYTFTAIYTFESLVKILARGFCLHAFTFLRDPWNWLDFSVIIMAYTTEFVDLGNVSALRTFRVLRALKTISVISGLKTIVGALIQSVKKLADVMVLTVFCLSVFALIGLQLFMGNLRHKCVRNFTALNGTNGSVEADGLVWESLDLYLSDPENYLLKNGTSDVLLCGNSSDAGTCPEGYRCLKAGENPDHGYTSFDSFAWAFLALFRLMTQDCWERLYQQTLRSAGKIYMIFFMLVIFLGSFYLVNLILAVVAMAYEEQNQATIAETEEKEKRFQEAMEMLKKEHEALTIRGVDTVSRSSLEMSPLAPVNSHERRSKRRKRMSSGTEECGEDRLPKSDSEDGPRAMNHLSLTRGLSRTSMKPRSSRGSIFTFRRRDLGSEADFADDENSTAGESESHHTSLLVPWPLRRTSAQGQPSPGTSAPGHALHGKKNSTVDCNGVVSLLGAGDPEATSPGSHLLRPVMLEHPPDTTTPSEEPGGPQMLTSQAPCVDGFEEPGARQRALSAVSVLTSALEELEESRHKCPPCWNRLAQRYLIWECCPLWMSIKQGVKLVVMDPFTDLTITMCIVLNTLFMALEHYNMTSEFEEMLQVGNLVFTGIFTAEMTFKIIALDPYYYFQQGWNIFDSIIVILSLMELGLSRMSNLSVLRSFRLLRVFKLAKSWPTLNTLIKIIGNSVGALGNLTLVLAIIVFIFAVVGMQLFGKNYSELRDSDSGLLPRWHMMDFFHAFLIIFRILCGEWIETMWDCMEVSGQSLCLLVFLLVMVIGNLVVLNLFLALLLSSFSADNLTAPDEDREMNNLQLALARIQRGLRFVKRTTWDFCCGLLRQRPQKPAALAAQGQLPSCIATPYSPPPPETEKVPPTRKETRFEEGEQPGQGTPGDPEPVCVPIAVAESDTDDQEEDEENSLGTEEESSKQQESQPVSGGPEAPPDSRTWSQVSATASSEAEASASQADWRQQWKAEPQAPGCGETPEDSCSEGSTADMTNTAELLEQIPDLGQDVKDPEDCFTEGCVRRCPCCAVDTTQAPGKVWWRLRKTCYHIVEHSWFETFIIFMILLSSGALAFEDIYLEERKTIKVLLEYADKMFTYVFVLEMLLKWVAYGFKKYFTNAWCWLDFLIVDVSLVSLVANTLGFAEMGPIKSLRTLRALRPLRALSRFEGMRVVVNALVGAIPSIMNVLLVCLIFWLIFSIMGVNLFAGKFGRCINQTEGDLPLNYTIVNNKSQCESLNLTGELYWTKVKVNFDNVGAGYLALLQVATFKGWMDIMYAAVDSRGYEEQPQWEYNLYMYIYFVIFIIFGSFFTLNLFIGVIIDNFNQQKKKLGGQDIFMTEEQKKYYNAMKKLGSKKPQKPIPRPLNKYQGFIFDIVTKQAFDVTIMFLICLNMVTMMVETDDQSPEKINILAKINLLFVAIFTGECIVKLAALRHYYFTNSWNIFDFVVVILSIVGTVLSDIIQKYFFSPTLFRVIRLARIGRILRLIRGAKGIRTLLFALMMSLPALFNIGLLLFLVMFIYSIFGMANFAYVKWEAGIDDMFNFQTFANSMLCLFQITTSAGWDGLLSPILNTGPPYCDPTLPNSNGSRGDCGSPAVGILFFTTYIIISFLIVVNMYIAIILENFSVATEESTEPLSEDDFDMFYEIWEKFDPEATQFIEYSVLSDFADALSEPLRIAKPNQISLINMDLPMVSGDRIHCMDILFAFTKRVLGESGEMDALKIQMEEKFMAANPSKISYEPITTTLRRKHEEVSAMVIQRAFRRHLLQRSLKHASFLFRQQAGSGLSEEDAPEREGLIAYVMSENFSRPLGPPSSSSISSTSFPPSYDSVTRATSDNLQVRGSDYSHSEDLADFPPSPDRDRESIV

[20] = Half life in Wistar Han rat at 1 mg/kg, iv or 2 mg/kg, po; details: in vivo
[21] = molecular target: T3, ATP-sensitive inward rectifier potassium channel 1 (Rattus norvegicus, UniProt P35560); assay: Inhibition of rat ROMK expressed in HEK293 cells after 30 mins by FLIPR based thallium flux assay; format: cell-based
T3 sequence (P35560 whole entry): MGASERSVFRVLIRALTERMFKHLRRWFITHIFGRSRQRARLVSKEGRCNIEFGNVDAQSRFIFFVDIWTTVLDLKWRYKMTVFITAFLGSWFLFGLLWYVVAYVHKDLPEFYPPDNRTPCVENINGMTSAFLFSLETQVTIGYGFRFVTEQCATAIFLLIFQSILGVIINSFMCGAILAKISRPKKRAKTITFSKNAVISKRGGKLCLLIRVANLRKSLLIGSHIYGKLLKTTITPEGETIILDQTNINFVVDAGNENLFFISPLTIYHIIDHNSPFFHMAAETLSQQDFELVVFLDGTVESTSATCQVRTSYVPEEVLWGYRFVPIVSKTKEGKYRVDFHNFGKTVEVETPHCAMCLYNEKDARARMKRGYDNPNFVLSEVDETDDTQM

Cytochrome P450 3A4 [22] = molecular target: T2, Cytochrome P450 3A4; assay: Time dependent inhibition of CYP3A4 (unknown origin) in absence of NADPH; format: ADME
Cytochrome P450 2C8 = molecular target: T4, Cytochrome P450 2C8 (Homo sapiens, UniProt P10632); assay: Inhibition of CYP2C8 (unknown origin); format: ADME
T4 sequence (P10632 whole entry): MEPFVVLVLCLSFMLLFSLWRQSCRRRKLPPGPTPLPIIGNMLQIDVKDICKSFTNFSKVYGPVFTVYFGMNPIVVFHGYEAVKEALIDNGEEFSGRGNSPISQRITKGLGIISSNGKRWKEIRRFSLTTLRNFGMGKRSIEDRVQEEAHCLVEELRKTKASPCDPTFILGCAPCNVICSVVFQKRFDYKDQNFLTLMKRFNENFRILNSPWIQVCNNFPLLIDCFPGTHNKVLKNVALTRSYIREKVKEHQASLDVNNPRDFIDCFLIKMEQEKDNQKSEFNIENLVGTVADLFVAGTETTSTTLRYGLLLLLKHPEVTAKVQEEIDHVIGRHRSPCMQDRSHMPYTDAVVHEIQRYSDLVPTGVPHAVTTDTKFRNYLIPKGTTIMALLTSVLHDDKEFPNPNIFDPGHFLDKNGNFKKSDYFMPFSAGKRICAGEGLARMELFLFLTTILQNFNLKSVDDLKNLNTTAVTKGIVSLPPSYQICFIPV

Rattus norvegicus [23] = assay: Antihypertensive activity in rat spontaneous hypertensive model assessed as change in systolic blood pressure at 3 mg/kg, po qd measured after 3 days; format: functional
[24] = molecular target: T5, Nuclear receptor subfamily 1 group I member 2 (Homo sapiens, UniProt O75469); assay: Activity at PXR (unknown origin) assessed as CYP induction
T5 sequence (O75469 whole entry): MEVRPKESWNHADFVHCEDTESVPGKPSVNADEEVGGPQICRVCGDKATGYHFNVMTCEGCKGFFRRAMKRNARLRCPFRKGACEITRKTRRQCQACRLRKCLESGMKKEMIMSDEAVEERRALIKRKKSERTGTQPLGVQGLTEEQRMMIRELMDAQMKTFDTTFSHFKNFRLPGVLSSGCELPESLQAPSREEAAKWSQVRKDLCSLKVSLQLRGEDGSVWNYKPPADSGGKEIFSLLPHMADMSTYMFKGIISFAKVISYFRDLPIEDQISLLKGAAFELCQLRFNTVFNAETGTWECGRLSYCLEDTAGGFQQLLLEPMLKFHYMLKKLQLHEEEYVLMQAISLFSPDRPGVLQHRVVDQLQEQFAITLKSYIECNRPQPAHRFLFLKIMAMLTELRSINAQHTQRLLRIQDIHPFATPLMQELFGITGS

AUC/dose (Rattus norvegicus [1]): 1.2 µM·kg·h/mg
Cp(f) [3]: 22.5 µM
pIC50 [4]: 4.98
pIC50 [5]: 7.77
pIC50 (Cytochrome P450 2D6): < 4.30
fraction unbound [6]: 0.456
pIC50 (Cytochrome P450 3A4 [8]): < 4.30
fraction unbound [9]: 0.455
Cp(f) [11]: 13.5 µM
pIC50 (Cytochrome P450 3A4 [13]): < 4.30
half-life [14]: 5.8 h
clearance [16]: 18.3 mL/min/kg
fraction unbound [17]: 0.405
half-life [20]: 2.8 h
pIC50 [21]: 7.42
pIC50 (Cytochrome P450 3A4 [22]): < 4.30
pIC50 (Cytochrome P450 2C8): < 4.30
pIC50 [24]: < 4.52
Compound: Cc1c([C@@H](O)CN2CCC3(CC2)CCN(c2ccc(=O)n(C)n2)C3=O)ccc2c1COC2=O
Activity (Cavia porcellus [2]): 9%
Activity (Rattus norvegicus [7]): inactive
Activity (Rattus norvegicus [10]): Active
pIC50 [12]: < 4.52
Activity (Cavia porcellus [15]): 12%
Activity (Rattus norvegicus [18]): Active
pIC50 [19]: < 4.52
Activity (Rattus norvegicus [23]): -14 mmHg
